Laboratory results published in patent publication US11773081B2, “Pharmaceutical composition for preventing or treating wound, comprising indirubin derivative as active ingredient” (CK Regeon Inc., priority 2018, dated 2023).
“Also recorded” adds a separate entry of the source.

Legend:
Assay type in all cases: in vivo
mouse acute wound [1] = assay: Wound healing effect of extract and indirubin derivative mixtures in mouse acute wound (Test Example 6); details: mouse acute wound tissue, fluorescence staining
Protocol: Wound healing-promoting effect was investigated after treating an animal model with the indirubin derivative of Example 1 (0.5 mM), the indirubin derivative of Example 2 (0.5 mM) or the mixtures of Examples 12 and 13 (0.5 mM indirubin derivative mixed with 1 μg/mL Euodia sutchuenensis Dode extract).
The hair on the back of 7-week-old C3H mouse that entered the resting period was removed and a 1.5×1.5 cm^2 wound was made on the hair-removed region. A sample was applied to a positive control group, once daily for 12 days. After measuring wound size of the experimental animal on days 0 and 12, the wound tissue was fixed by immersing in 4% paraformaldehyde, embedded in paraffin and then sliced into 4 μm thickness. The sliced tissue was deparaffinized, rehydrated and then the degree of re-epithelialization was compared. Masson's trichrome staining and Picrosirius red staining were conducted for evaluation of the degree of collagen synthesis. For Masson's trichrome staining, a slide was immersed in Weigert's iron hematoxylin solution for 10 minutes and in Biebrich scarlet-acid fuchsin and aniline blue for 5 minutes each. […] The sliced skin tissue was fluorescence-stained using β-catenin, PCNA, keratin 14 and collagen I antibodies and was observed using a fluorescence microscope (FIG. 9a). […]

mouse acute wound [2] = assay: Wound healing and collagen synthesis in mouse acute wound (Test Example 2)
Protocol: The wound healing-promoting effect of the indirubin derivatives prepared in Examples 1 and 2, the indirubin derivative of Comparative Example 1 (10) and EGF, known as an existing wound healing agent, as a positive control group was investigated through animal experiments.
The hair on the back of 7-week-old C3H mouse that entered the resting period was removed and a 1.5×1.5 cm^2 wound was made on the hair-removed region. 20 μL of a vehicle (10% DMSO, 45% ethanol, 18% propylene glycol, 27% water) and the indirubin derivative of Comparative Example 1 (10) were applied to a control group and a comparison group, respectively, once daily for 12 days. For the positive control group, 100 μM EGF was applied once daily for 12 days. For a first test group, 20 μL of the indirubin derivative of Example 2 (A3051) was applied once daily for 12 days. For a second test group, 20 μL of the indirubin derivative of Example 1 (A3334) was applied once daily for 12 days.
The tissue of each experimental mouse was fixed by immersing in 4% paraformaldehyde, embedded in paraffin and then sliced into 4 μm thickness. The sliced tissue was deparaffinized, rehydrated and then stained with Masson's trichrome and Picrosirius red for evaluation of the degree of collagen synthesis. For Masson's trichrome staining, a slide was placed in Weigert's iron hematoxylin solution for 10 minutes and in Biebrich scarlet-acid fuchsin and aniline blue for 5 minutes each. For Picrosirius red staining, a slide was placed in Weigert's solution for 8 minutes and in Picrosirius red for 1 hour.

diabetic wound = assay: Effect of treating diabetic wound (Test Example 9); details: diabetes-induced mouse
Protocol: 3-week-old male C57BL/6N mice (Koatech, South Korea) were used. After accustoming the mice for a week to normal feed, high-fat diet (Product Data—D12492; 60% kcal, hereinafter referred to as HFD) was given for 4 weeks. Then, a diabetes-induced animal model was prepared by intraperitoneally injecting 40 mg/kg streptozocin (Sigma) once daily for a week. The mice were kept in cages maintained at constant temperature (22±2° C.) and relative humidity (40-60%) with light/dark cycles of 12/12 hours.
6 mice of the normal control group and 6 mice per test group of the diabetes-induced animal model of Test Example 7 were prepared. The hair on the back was removed and a 0.8×0.8 cm^2 wound was made on the hair-removed region.
For the normal control group, only 20 μL of an emulsion solution (Kollipore®EL:Tween 80:PEG 400 at a mixing weight ratio of 80:6:14) was applied to the wound site once daily for 14 days. For the negative control group, only 20 μL of the emulsion solution (Kollipore®EL:Tween 80:PEG 400 at a mixing weight ratio of 80:6:14) was applied to the wound site once daily for 14 days. For the positive control group (VPA), 20 μL of a composition prepared by mixing 500 mM VPA in an emulsion solution was applied to the wound site once daily for 14 days.
For the first test group, 20 μL of A3334 (Example 1) was applied to the wound site once daily for 14 days. For the second test group, 20 μL of A3051 (Example 2) was applied to the wound site once daily for 14 days. Then, the wound site of each group was photographed and the wound area was measured (FIG. 14). On day 14, after euthanizing the mouse with carbon dioxide, the wound site tissue was harvested and the histological structure was observed.
Specifically, the wound site tissue obtained from the normal control group, the negative control group, the positive control group or the first or second test group was fixed by immersing in 4% paraformaldehyde, embedded in paraffin and then sliced into 4 μm thickness. The sliced tissue was deparaffinized, rehydrated and then stained with hematoxylin (purple) and eosin (pink) for observation of histological structure.
Specifically, the wound site tissue obtained from the normal control group, the negative control group, the positive control group or the first or second test group was fixed by immersing in 4% paraformaldehyde, embedded in paraffin and then sliced into 4 μm thickness. The sliced tissue was deparaffinized, rehydrated and then stained with Van Gieson's stain and Masson's trichrome for observation of histological structure. For the Van Gieson's staining, the sliced tissue was immersed in Weigert's solution for 10 minutes and in picrofuchsin solution for 2 minutes. For the Masson's trichrome staining, the sliced tissue was immersed in Weigert's iron hematoxylin solution for 10 minutes and in Biebrich scarlet-acid fuchsin and Aniline blue for 5 minutes each.
Specifically, the wound site tissue obtained from the normal control group, the negative control group, the positive control group or the first and second test groups was fixed by immersing in 4% paraformaldehyde and angiogenesis was observed.

[3] = C3H mouse acute wound, once daily for 12 days, vs EGF

COc1ccc2c(c1)/C(=C1/Nc3ccccc3/C1=N\O)C(=O)N2 [Example 1, 5-methoxylindirubin-3′-oxime]
expression of β-catenin, PCNA, keratin 14 and collagen I (mouse acute wound [1]): slightly lower as compared to the positive control group
quantity of collagen (Masson's trichrome, Picrosirius red, van Gieson's stain) (mouse acute wound [2]; C3H mouse acute wound tissue, vs control group, Comparative Example 1, positive control group): remarkably increases the quantity of collagen
re-epithelialization of acute wound (mouse acute wound [2]; [3]): re-epithelialized comparably to or faster than the positive control group EGF
scar-reducing effect, repair of the epidermal layer of skin (mouse acute wound [2]; [3]): repairing the epidermal layer of skin without remaining scars
wound repair effect as compared to the positive control group EGF (mouse acute wound [2]; C3H mouse, 1.5×1.5 cm^2 wound, 20 μL once daily for 12 days, EGF 100 μM, listed as A3334): slightly superior wound repair effect; also recorded: slightly better wound repair effect
angiogenesis around the wound site (diabetic wound): increased angiogenesis
healing of the wound site (diabetic wound; 0.8×0.8 cm^2 wound, 20 μL once daily for 14 days, VPA 500 mM): healing of the wound site was promoted similarly to the normal control group
re-epithelialization (H&E) (diabetic wound; 14 days): re-epithelialization occurred quickly
collagen synthesis (Van Gieson's stain, Masson's trichrome) (diabetic wound; vs normal, negative and positive control group (VPA)): increased collagen synthesis
